Test results published in patent US6683103B2, “Sulfonamides for treatment of endothelin-mediated disorders” (Texas Biotechnology Corporation, priority 1997, dated 2004).
Where two headings read alike, the source gives them in different places.

Columns and labels:
[1] = Oral half-life and peak plasma levels in rat; assay type: in vivo; details: for Peak Plasma Levels: in vivo; for POt½ in Rat: oral
Description: As used herein, bioavailability refers to the rate and extent of absorption. Methods for determining bioavailability are well known to those of skill in the art. For example, bioavailability of any of the compounds described herein can be determined empirically by administration of the compound to an animal, followed by taking blood samples over time and measuring the blood concentration of the compound. In vivo half life (t½) is defined as the time it takes for the concentration of the compound in the blood to be reduced by one-half. Estimations of the area under the curve for intravenous administration can be used to estimate the area under the curve for oral administration, yielding bioavailability data. See, e.q., Milo Gibal (1991) Biopharmaceutics and Pharmacology, 4th edition (Lea and Sediger).
Table 4 lists oral half-life, bioavailability, and in vivo activity of selected exemplary compounds. The in vivo activity was measured in a pulmonary hypertension model and is a measure of the activity of the compounds at selected dosages.

[2] = target: T1, human ETA receptors (Homo sapiens, UniProt P25101); assay: Binding Test #1: inhibition of 125I-ET-1 binding to ETA receptors (TE 671 cell membranes); details: for IC50: read-out: ETA
T1 construct: endogenous in cells; host or cells: TE 671 cells (ATCC HTB 139)
T1 sequence (P25101 21-427): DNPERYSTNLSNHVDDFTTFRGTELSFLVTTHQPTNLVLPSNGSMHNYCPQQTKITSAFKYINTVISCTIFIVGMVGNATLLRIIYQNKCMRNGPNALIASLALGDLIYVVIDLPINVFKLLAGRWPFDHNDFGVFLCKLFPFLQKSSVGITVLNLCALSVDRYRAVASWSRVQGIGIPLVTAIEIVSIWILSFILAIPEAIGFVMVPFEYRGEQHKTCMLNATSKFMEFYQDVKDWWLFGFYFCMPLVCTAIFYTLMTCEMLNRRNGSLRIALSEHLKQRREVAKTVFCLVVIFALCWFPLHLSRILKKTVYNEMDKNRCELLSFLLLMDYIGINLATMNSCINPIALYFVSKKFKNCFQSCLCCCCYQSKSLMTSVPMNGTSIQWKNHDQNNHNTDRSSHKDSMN
Method in brief: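 Radioligand competition in triplicate: ¹²⁵I-endothelin-1 displaced by test compound (1 nM–100 μM final) from ETA-bearing TE 671 cell membranes in HEPES pH 7.4 binding buffer with NaCl, MgCl2 and bacitracin. Incubation 16–18 h at 4 °C (or at 24 °C); 80 nM ET-1 defines nonspecific binding; pellet radioactivity gives percent inhibition.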

[3] = system: DOCA-salt hypertensive rat; assay: Deoxycorticosterone acetate (DOCA)-salt hypertensive rat model; assay type: in vivo
Experimental: E. Deoxycorticosterone Acetate (DOCA)-Salt Hypertensive Rat Model for Assessing in vivo Activity of Selected Compounds
Selected compounds disclosed herein have been tested for activity in the deoxycorticosterone acetate (DOCA)-salt hypertensive rat model. To perform these tests, silastic MDX4-4210 elastomer implants containing 47 mg (DOCA) were prepared according to the method of Ornmsbee et al. ((1973) the J. Pharm. Sci. 62:255-257). Briefly, DOCA is incorporated into silicon rubber implants for sustained release. To prepare the implants the DOCA is incorporated into unpolymerized silicone rubber, catalyst is added and the mixture is cast in a hemicylindrical shape.
Sprague Dawley rats (7-8 weeks old) were unilaterally nephrectomized under ketamine anesthesia and a DOCA-implant was placed on the left lateral dorsal abdomen of the animal. The rats were allowed to recover for three weeks. During recovery they were permitted free access to normal rat chow and 0.9% NaCl drinking solution in place of drinking water. The rats develop hypertension within 3 weeks.
All animals were used in the tests between 21 and 30 days post surgery. The mean arterial blood pressure in these animals ranged from 165-200 mm Hg.
On the day of experimentation, catheters were inserted under brevital anesthesia into the right femoral artery for measurement of blood pressure, and into the right femoral vein for administration of a selected compound. The animals were placed in a restrainer and allowed to recover for a minimum of 60 min or until a steady mean arterial blood pressure was recorded. At that time, the selected compound or control vehicle was administered either intravenously, as a 60 minute infusion, or orally by oral gavage. Blood pressure was recorded continuously for a further 10 hrs.

[4] = target: T2, human ETB receptor (Homo sapiens, UniProt P24530); assay: Binding Test #2: inhibition of 125I-ET-1 binding to ETB receptors (transfected COS7 cell membranes); details: Table 1, read-out: ETB
T2 construct: expressed in transfected cells; host or cells: COS7 cells
T2 sequence (P24530 27-442): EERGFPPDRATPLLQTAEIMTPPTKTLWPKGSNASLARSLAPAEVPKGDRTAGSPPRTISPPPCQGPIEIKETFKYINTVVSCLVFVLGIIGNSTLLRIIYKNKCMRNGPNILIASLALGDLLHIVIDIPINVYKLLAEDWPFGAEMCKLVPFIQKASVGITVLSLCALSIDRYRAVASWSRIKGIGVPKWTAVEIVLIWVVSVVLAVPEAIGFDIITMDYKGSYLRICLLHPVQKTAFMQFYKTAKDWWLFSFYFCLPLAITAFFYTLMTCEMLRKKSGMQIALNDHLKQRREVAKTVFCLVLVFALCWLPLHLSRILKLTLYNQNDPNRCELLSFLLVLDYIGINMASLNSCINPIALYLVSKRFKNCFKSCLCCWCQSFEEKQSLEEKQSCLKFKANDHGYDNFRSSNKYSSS
Method in brief: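 Competition with 125I-ET-1 for binding to membranes from COS7 cells transfected with human ETB receptor, used at 1 μg/50 μl binding buffer. Membranes prepared in HEPES pH 7.4 with aprotinin, including a DNase/MnCl2 step at 37 °C for 30 min.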

[5] = system: ET-1-induced pressor response; assay: ET-1-induced pressor responses in conscious, autonomically blocked rats; assay type: in vivo, rat; details: in 30 min at dosages as low as 30 mg/kg
Experimental: Animals were placed in a restrainer and allowed to regain consciousness. Thirty minutes later autonomic blockade was administered (atropine methyl nitrate, 3 mg/kg, IV, followed by propranalol, 2 mg/kg, IV). An hour later animals received a bolus injection of vehicle (0.5 ml) followed thirty minutes later by intravenous bolus administration of ET-1 (Control, 1 μg/kg). Following recovery from this challenge, test-compounds were administered by intravenous bolus administration (0.5 ml) and then re-challenged with ET-1 thirty minutes later. Results are expressed as the percent inhibition of the ET-1-induced pressor response after administration of the test compound compared to the pressor response induced by the control ET-1 challenge. In some cases a third ET-1 challenge was administered ninety minutes after administration of the test compound.

[6] = Table 3, † incubation at 24° C.
[7] = Table 1, † incubation at 24° C.

**Q.** What does the source list for `Cc1cc(C)c(NC(=O)c2sccc2S(=O)(=O)Nc2onc(C)c2Cl)c(C(=O)C2CC2)c1` [3-(((4-chloro-3-methyl-5-isoxazolyl)amino)sulfonyl)-N-(2-(cyclopropylcarbonyl)-4,6-dimethylphenyl)-2-thiophenecarboxamide]?
**A.** Peak Plasma Levels [1]: 53 µg/mL; POt½ in Rat [1]: 5.5 h; ETA/ETB selectivity ([2]; Table 3): 45000^∥; IC50 [2, 6]: 0.36 nM

**Q.** For `Cc1cc(C)c(NC(=O)c2sccc2S(=O)(=O)Nc2onc(C)c2Cl)c(C(=O)C(C)C)c1` [3-(((4-chloro-3-methyl-5-isoxazolyl)amino)sulfonyl)-N-(2-isobutyryl-4,6-dimethylphenyl)-2-thiophenecarboxamide], which “Peak Plasma Levels” value [1] is on record?
**A.** 59 µg/mL

**Q.** And the “POt½ in Rat” value [1]?
**A.** 5.4 h

**Q.** What about the ETA/ETB selectivity ([2]; Table 3) of the same molecule?
**A.** 14000^∥

**Q.** And the IC50 [2, 6]?
**A.** 1.11 nM

**Q.** With `Cc1noc(NS(=O)(=O)c2ccc(-c3ccon3)s2)c1Br` [Example 10, N-(4-Bromo-3-methyl-5-isoxazolyl)-5-(3-isoxazolyl)thiophene-2-sulfonamide] as the molecule, how does the melting point read?
**A.** 120 to 123 °C

**Q.** With `Cc1cc(C)c(N(C(=O)c2sccc2S(N)(=O)=O)c2onc(C)c2Cl)c(C)c1O` [Example 52, N^2-(4-Chloro-3-methyl-5-isoxazolyl)-N-(3-hydroxy-2,4,6-trimethylphenyl)-3-sulfamoyl-2-thiophenecarboxamide] as the molecule, how does the melting point read?
**A.** 75 to 78 °C

**Q.** Which melting point does the source give for `Cc1noc(NS(=O)(=O)c2ccsc2C(N)=O)c1Br` [N-(4-bromo-3-methyl-5-isoxazolyl)-2-(aminocarbonyl)thiophene-3-sulfonamide] here?
**A.** 168 to 170 °C

**Q.** Which results are given for `Cc1noc(NS(=O)(=O)c2c(Cc3ccc4c(c3)OCO4)sc3ccccc23)c1Br` [N-(4-bromo-3-methyl-5-isoxazolyl)-2-[3,4-(methylenedioxy)benzyl]benzo[b]thiophene-3-sulfonamide]?
**A.** effect on blood pressure [3]: effective in decreasing blood pressure; IC50 ([2]; Table 1, incubation at 4° C.): 1.5 ± 1.4 nM; IC50 [2, 7]: 7.4 ± 1.1 nM; IC50 ([4]; incubation at 4° C.): 0.324 ± 0.78 µM; IC50 ([4]; † incubation at 24° C.): 0.939 ± 0.262 µM

**Q.** With `Cc1noc(NS(=O)(=O)c2ccsc2C(=O)Nc2ccccc2O)c1Br` [N-(4-bromo-3-methyl-5-isoxazolyl)-2-[(2-hydroxyphenyl)aminocarbonyl]thiophene-3-sulfonamide] as the molecule, how does the melting point read?
**A.** 42 to 44 °C

**Q.** Which melting point does the source give for `Cc1ccc(OCc2sccc2S(=O)(=O)Nc2onc(C)c2Br)cc1` [N-(4-bromo-3-methyl-5-isoxazolyl)-2-[(4-methylphenoxy)methyl]thiophene-3-sulfonamide] here?
**A.** 128 to 130 °C

**Q.** For `Cc1noc(NS(=O)(=O)c2ccc(COCc3ccccc3)s2)c1Br` [N-(4-bromo-3-methyl-5-isoxazolyl)-5-(benzyloxymethyl)thiophene-2-sulfonamide], which melting point is on record?
**A.** 92 °C

**Q.** And the IC50 [2, 7]?
**A.** 12000 nM

**Q.** What about the IC50 ([4]; † incubation at 24° C.) of the same molecule?
**A.** 9 µM

**Q.** For `Cc1cc(C)c(NC(=O)c2sccc2S(=O)(=O)Nc2onc(C)c2Cl)c(C)c1CC#N` [N-(4-chloro-3-methyl-5-isoxazolyl)-2-(3-cyanomethyl-2,4,6-trimethylphenylaminocarbonyl)thiophene-3-sulfonamide], which “Peak Plasma Levels” value [1] is on record?
**A.** 40.2 µg/mL

**Q.** And the “POt½ in Rat” value [1]?
**A.** 3.4 h

**Q.** And the IC50 [2, 7]?
**A.** 0.6 nM

**Q.** And the IC50 ([4]; † incubation at 24° C.)?
**A.** ~45 µM

**Q.** Which results are given for `Cc1cc(C)c(NC(=O)c2sccc2S(=O)(=O)Nc2onc(C)c2Cl)c(C)c1CO` [N-(4-chloro-3-methyl-5-isoxazolyl)-2-(3-hydroxymethyl-2,4,6-trimethylphenylaminocarbonyl)thiophene-3-sulfonamide]?
**A.** Peak Plasma Levels [1]: 3 µg/mL; POt½ in Rat [1]: 1.5 h; IC50 [2, 7]: 0.4 nM; IC50 ([4]; † incubation at 24° C.): ~80 µM

**Q.** Which “Peak Plasma Levels” value [1] does the source give for `Cc1cc(C)c(NS(C)(=O)=O)c(C)c1NC(=O)c1sccc1S(=O)(=O)Nc1onc(C)c1Cl` [N-(4-chloro-3-methyl-5-isoxazolyl)-2-(3-methanesulfonylamino-2,4,6-trimethylphenylaminocarbonyl)thiophene-3-sulfonamide] here?
**A.** 2.6 µg/mL

**Q.** And the “POt½ in Rat” value [1]?
**A.** 5.9 h

**Q.** For `COc1ccc(NC(=O)c2sccc2S(=O)(=O)Nc2onc(C)c2Cl)c(C)c1` [N-(4-chloro-3-methyl-5-isoxazolyl)-2-[4-methoxy-2-methylphenyl)aminocarbonyl]thiophene-3-sulfonamide], which reduction of pressure [5] is on record?
**A.** about 30%

**Q.** For `Cc1ccc(NC(=O)c2sccc2S(=O)(=O)Nc2onc(C)c2Cl)cc1` [N-(4-chloro-3-methyl-5-isoxazolyl)-2-[(4-tolyl)aminocarbonyl]thiophene-3-sulfonamide], which “effect on blood pressure” value [3] is on record?
**A.** effective in decreasing blood pressure

**Q.** Which reduction of pressure [5] does the source give for `COc1cc(C#N)c(NC(=O)c2sccc2S(=O)(=O)Nc2onc(C)c2Cl)cc1OC` [N-(4-chloro-3-methyl-5-isoxazolyl)-2-[{2-cyano-4,5-dimethoxyphenyl)aminocarbonyl]thiophene-3-sulfonamide] here?
**A.** about 30%

**Q.** Which results are given for `Cc1noc(NS(=O)(=O)c2ccsc2CC(O)c2ccc3c(c2)OCO3)c1Cl` (stereo not drawn) [N-(4-chloro-3-methyl-5-isoxazolyl)-2-[β-hydroxy(3,4-methylenedioxy)phenylethyl]thiophene-3-sulfonamide]?
**A.** effect on blood pressure [3]: effective in decreasing blood pressure; IC50 [2, 7]: 53 nM; IC50 ([4]; † incubation at 24° C.): 16 µM

**Q.** For `CC(=O)c1cc2c(cc1NC(=O)c1sccc1S(=O)(=O)Nc1onc(C)c1Cl)OCO2` [N-(4-chloro-3-methyl-5-isoxazolyl)-2-{[2-acetyl-4,5-(methylenedioxy)phenyl]aminocarbonyl}thiophene-3-sulfonamide], which reduction of pressure [5] is on record?
**A.** about 30%

**Q.** And the IC50 [2, 7]?
**A.** 10 nM

**Q.** And the IC50 ([4]; † incubation at 24° C.)?
**A.** 31.6 µM
